Consider three compounds from publication PMC6127322, “Novel Imidazole and Methoxybenzylamine Growth Inhibitors Affecting Salmonella Cell Envelope Integrity and its Persistence in Chickens” (Scientific Reports, 2018).

In brackets after ≈: the same amount, converted by molar mass. Read-outs that look alike come from different tables or passages of the source.

The test system of data set [1] is S. Typhimurium LT2 wild-type (WT) strain. Kind of data set: Dose-response assay (MIC and MBC determination) in M9 broth. It is filed as cell-based, Salmonella enterica subsp. enterica serovar Typhimurium. The note with it: 12 hrs at 37 °C, read-out: MBC (minimal bactericidal concentration). The method, then:
Typhimurium using high-throughput screening assay in a 96-well plate format. […] Plates were incubated in a Sunrise Tecan kinetic microplate reader for 12 hrs at 37 °C and the optical density (OD) was measured at 600 nm. The percentage of growth inhibition was calculated as: […]. Cultures from wells showing no turbidimetric increase were transferred onto a XLT4 agar plate. Plates were incubated at 37 °C for 36 hrs. […] S. Typhimurium was challenged with a determined concentration of SM as described in the primary screen.

A further data set relates to Salmonella Heidelberg. Kind of data set: Dose-response assay (MBC) on Salmonella serovars. It is filed as cell-based. The conditions noted are these: Salmonella enterica; serovar Heidelberg, M9 broth.
The subject of a further data set is Salmonella Javiana. Kind of data set: Dose-response assay (MBC) on Salmonella serovars. It is filed as cell-based, Salmonella enterica.
The subject of a further data set is Salmonella Newport. Kind of data set: Dose-response assay (MBC) on Salmonella serovars. It is filed as cell-based. The note with it: Salmonella enterica; serovar Newport, M9 broth.
Data set [2] has as its system nine Salmonella serotypes. Kind of data set: Activity spectrum and dose-response across Salmonella serotypes. It is filed as cell-based, Salmonella enterica. The conditions noted are these: for Effect against the nine Salmonella serotypes: 200 µM, M9 broth; for MBC: Salmonella, read-out: MBCs among the nine serotypes. The method, then: The 128 SMs inhibiting S. Typhimurium growth (20% or higher) were tested for their antimicrobial effect on nine different Salmonella serovars frequently implicated in foodborne gastroenteritis outbreaks. […] Both screens were performed at 200 µM as described in the primary screening. Growth conditions for each strain are described in Supplementary Table S2.
S. Typhimurium was challenged with a determined concentration of SM as described in the primary screen.

The test system of data set [3] is biofilm embedded S. Typhimurium. Kind of data set: MBEC high-throughput assay on biofilm. It is filed as cell-based, Salmonella enterica subsp. enterica serovar Typhimurium. The conditions noted are these: 18 hrs incubation; for MBC on biofilm embedded Salmonella: M9 medium; for Cidal concentration on biofilm relative to planktonic MBC: compared to planktonic dose-response in parallel. The method, then: The antimicrobial efficacy of the four SMs was tested on biofilm embedded S. Typhimurium as previously described. Briefly, 150 µl of an overnight suspension of S. Typhimurium normalized to 0.05 OD600 in LB medium was transferred into each well of a sterile, non-treated, flat bottom 96-well plate. The plate was covered using the lid containing the pegs (Innovotech), sealed with parafilm, and incubated for 36 hrs at 37 °C. […] The plate was incubated for 18 hrs at 37 °C, 110 rpm in the dark. After incubation, the pegs were transferred to a new 96-well plate containing 200 µl of sterile water and sonicated for 60 min at room temperature (Aquasonic model 50HT, VWR). Removal of the biofilm was confirmed by crystal violet staining. The supernatant was ten-fold serial diluted, plated on an agar plate, and incubated at 37 °C for 36 hrs. The lowest SM concentration giving a complete clearance was considered as MBEC. […] In parallel to this experiment, a dose-response assay with planktonic cells was conducted as described above.

A further data set relates to S. Typhimurium. It is filed as cell-based, Salmonella enterica subsp. enterica serovar Typhimurium. The note with it: lethal dose (2X MBC) on solid medium or repeated exposure to sub-lethal dose (0.75X MBC) in liquid medium.
Data set [4] has as its system S. Typhimurium cell membrane. Kind of data set: Confocal microscopy, FM4-64 and SYTO9 staining. It is filed as cell-based, Salmonella enterica subsp. enterica serovar Typhimurium. The note with it: 5X MBC for 3 hrs, compared to DMSO control. As to the method: An overnight suspension of S. […] The effect of the SMs on S. Typhimurium was assessed using confocal microscopy as previously described. Cells were stained for 45 min using FM4–64 (2 µg/ml; […] Invitrogen). Three microliters of stained bacteria were transferred onto agarose (1.2%) -coated glass slides. Microscopy was performed using a Leica TCS SP6 confocal scanning microscope with FM4–64 (515 nm/640 nm) and SYTO-9 (485 nm/498 nm) filters.

Data set [5] has as its system S. Typhimurium membrane permeability. Kind of data set: Crystal violet uptake assay. It is filed as cell-based, Salmonella enterica subsp. enterica serotype Typhimurium. The conditions noted are these: 1 hr, lethal dose (5X MBC); for Reduction of crystal violet uptake: compared to 1% DMSO control. As to the method: (§1) Figure S2. Estimation of the membrane permeability of Salmonella enterica subsp. enterica serotype Typhimurium strain JSG626 after small molecule (SM) treatment. (A) Crystal […]
(§2) Treatments were normalized based on 10 μg/ml of crystal violet solution (no uptake […]
(§3) different than the 1% DMSO control (P<0.01); n= 9. (B) Loss of 260 nm absorbing materials from S. Typhimurium cell content. 260 nm absorbing materials were measured […]
(§4) standard deviation; *: the amount of 260 nm absorbing material in supernatant was […]
(§5) Both experiments were performed as previously described (1).
(§6) (also on this page, place not known: updtae (%) (ng/µl) Crystal violet 260 nm absorbing material) […]

The subject of data set [6] is S. Typhimurium cell content. Kind of data set: Loss of 260 nm absorbing materials. It is filed as cell-based, Salmonella enterica subsp. enterica serotype Typhimurium. The conditions noted are these: 1 hr, lethal dose (5X MBC), compared to 1% DMSO control. As to the method:
as §1, §2, §3, §4, §5, §6

The subject of data set [7] is Galleria mellonella larvae. Kind of data set: Toxicity on G. mellonella larvae. It is filed as in vivo. The note with it: uninfected larvae, single treatment with 12.5 µg of SM, 72 hrs. The method, then: Galleria mellonella larvae (fifth instar stage) were incubated for 12 hrs at 37 °C in the dark. After incubation, only larvae with a white creamy phenotype and a body weight ranging between 225 to 275 mg were selected for the study. […] Larval survival was monitored on 12 hrs intervals. Not treated larvae, larvae treated with the buffer mix, and larvae treated with 12.5 µg of chloramphenicol were used as controls.

Data set [8] deals with S. Typhimurium in Caco-2 cells. Kind of data set: S. Typhimurium survival in infected cell lines. It is filed as cell-based, Salmonella enterica subsp. enterica serotype Typhimurium. The note with it: Salmonella enterica, internalized S. Typhimurium, 24 hrs; for IC50: estimated. As to the method: (§7) The ability of four SMs to clear S. Typhimurium was evaluated using three cell lines (Caco-2 cells, HD11, and THP-1 cells) as previously described. A multiplicity of infection (MOI) of 10 was used. Infected cells were treated with 1 µl of SMs (final concentration ranged between 100 µM and 6.25 µM) and incubated at 37 °C for 24 hrs in humidified, 5% CO2 incubator. Following incubation, cells were washed once with 1X PBS, lysed with 0.1% Triton-100X, serial ten-fold diluted in 1X PBS, and plated on agar plate. Plates were incubated at 37 °C for 24 hrs to determine the intracellular bacteria. Cells not infected and not treated, and cells infected and treated with 2% DMSO were used as controls.

Data set [9] relates to S. Typhimurium in HD11 cells. Kind of data set: S. Typhimurium survival in infected cell lines. It is filed as cell-based, Salmonella enterica subsp. enterica serotype Typhimurium. The note with it: Salmonella enterica, internalized S. Typhimurium, 24 hrs; for IC50: estimated. As to the method:
as §7

For data set [10], the system named is S. Typhimurium in THP-1 cells. Kind of data set: S. Typhimurium survival in infected cell lines. It is filed as cell-based, Salmonella enterica subsp. enterica serotype Typhimurium. The conditions noted are these: Salmonella enterica, internalized S. Typhimurium, 24 hrs; for IC50: estimated. The method, then: as §7
The test system of data set [11] is Kan^R S. Typhimurium in layer chickens. It is filed as in vivo, chicken. The note with it: for Reduction of Salmonella in the ceca: compared to the DMSO group; for Ceca positive for S. Typhimurium after enrichment / Livers positive for S. Typhimurium after enrichment / Spleens positive for S. Typhimurium after enrichment: n = 10 chickens per group.
[12] abbreviates: compared to the DMSO-treated group.

With `CC1CCC(C(C)C)C(OC(=O)Cn2c[n+](CC(=O)OC3CC(C)CCC3C(C)C)c3ccccc32)C1` (centres unmarked) [SM1], the MBC in [1] (Salmonella enterica) is 50 µM; in the data set on Salmonella Heidelberg, 100 µM; against Salmonella Javiana it was 100 µM; in the data set with Salmonella Newport, 100 µM; in data set [2], 50 to 100 µM; in data set [8], 25 µM. The MBC was 6.25 µM in data set [9] and 100 µM in data set [10]. Also, the “Effect against the nine Salmonella serotypes” value in data set [2] is recorded as “cidal”. Further, the “MBC on biofilm embedded Salmonella” value in data set [3] is listed as 40 µM. Also, the “Cidal concentration on biofilm relative to planktonic MBC” value in data set [3] turned out to be 0.8 X MBC. Moreover, the “Resistance development of S. Typhimurium” value in the data set on S. Typhimurium is recorded as “no resistance was observed”. For the same compound, in [4], the “Membrane phenotype, FM4–64 staining” value is on record as “No signal was detected”. Further, the “Reduction of crystal violet uptake” value in data set [5] was found to be 1.88 fold. Besides, the “Increase in 260 nm-absorbing material” value in data set [6] is on record as 2.18 fold. In addition, in data set [7], the Larva survival was 66%. Besides, the concentration for half-maximal inhibition (IC50) – broadly, the concentration that inhibits the measured activity by half – in data set [8] is 12.5 to 25 µM; in data set [9], under 3.21 µM; in [10], under 50 µM. The “Reduction of Salmonella in the ceca” value in [11] was “did not show any reduction”. Besides, the “Ceca positive for S. Typhimurium after enrichment” value (“Ceca positive for S. Typhimurium” below) in data set [11] turned out to be 90%. Besides, the “Livers positive for S. Typhimurium after enrichment” value (from here on “Livers positive for S. Typhimurium”) in [11] amounted to 40%. For the same compound, the “Spleens positive for S. Typhimurium after enrichment” value (“Spleens positive for S. Typhimurium” for short) in data set [11] was 50%.

`CCCCCCCCCCCCCCCC[n+]1ccn(CC#N)c1` [SM3]: the MBC in data set [1] is 25 µM; in [1] (Salmonella enterica), 25 µM; in the data set with Salmonella Heidelberg it was 50 µM; in the data set on Salmonella Javiana, 25 µM; against Salmonella Newport it was 50 µM; in data set [2] it was 25 to 50 µM. Further, the MBC in data set [8], in [9] and in [10] was 50 µM each time. Further, the “Effect against the nine Salmonella serotypes” value in [2] is “cidal”. The “MBC on biofilm embedded Salmonella” value in data set [3] stood at 15 µM. In addition, in data set [3], the “Cidal concentration on biofilm relative to planktonic MBC” value was 0.6 X MBC. The “Resistance development of S. Typhimurium” value in the data set on S. Typhimurium is reported as “no resistance was observed”. Moreover, in [4], the “Membrane phenotype, FM4–64 staining” value is “No signal was detected”. Also, in data set [5], the “Reduction of crystal violet uptake” value was determined as 4.46 fold. Moreover, in data set [6], the “Increase in 260 nm-absorbing material” value turned out to be 7.17 fold. This compound had a Larva survival in [7] of 85%. For the same compound, the IC50 in data set [8] is 12.5 to 25 µM; in data set [9], under 25 µM; in data set [10], 25 to 50 µM. Besides, the “Reduction of Salmonella in the ceca” value in data set [11] was “did not show any reduction”. Further, the “Ceca positive for S. Typhimurium” value in data set [11] is 80%. Further, in data set [11], the “Livers positive for S. Typhimurium” value turned out to be 60%. In addition, the “Spleens positive for S. Typhimurium” value in data set [11] worked out at 50%.

On to `CCOc1cc(/C=N/N=C(N)N)ccc1OCc1ccc(Cl)cc1` [SM5], for which the MBC was 25 µM (≈ 8.67 µg/mL) in data set [1]; 25 µM (≈ 8.67 µg/mL) in data set [1] (Salmonella enterica); 50 µM (≈ 17.3 µg/mL) against Salmonella Heidelberg; 50 µM (≈ 17.3 µg/mL) in the data set with Salmonella Javiana; 50 µM (≈ 17.3 µg/mL) with Salmonella Newport; 25 to 100 µM (≈ 8.67 to 34.7 µg/mL) in data set [2]. Moreover, the MBC stood at 12.5 µM (≈ 4.34 µg/mL) in data set [8], 25 µM (≈ 8.67 µg/mL) in [9] and 50 µM (≈ 17.3 µg/mL) in [10]. The “MBC on biofilm embedded Salmonella” value in data set [3] is reported as 25 µM (≈ 8.67 µg/mL). Also, the “Resistance development of S. Typhimurium” value with S. Typhimurium was “no resistance was observed”. Also, in data set [4], the “Membrane phenotype, FM4–64 staining” value is recorded as “a bright red spot was detected within every bacterium”. In [5] (compared to 1% DMSO-treated cells), the “Increase in permeability (crystal violet uptake)” value is 2.32 fold. In addition, the “Increase in 260 nm-absorbing material” value in data set [6] is 5.25 fold. The compound further returned a Larva survival in data set [7] of 92%. Further, the IC50 in [8] was 6.25 to 12.5 µM; in [9], under 12.5 µM; in data set [10], under 25 µM. Further, the “Reduction in Salmonella population inside the ceca” value in data set [11] (200 µg of SM per day, oral, five days) was “approximately 2.8 log”. In data set [11] (setting [12]), the “Reduction of cecal colonization by Salmonella” value is given as 30%. In addition, the “Reduction of spleen colonization by Salmonella” value in [11] (setting [12]) is listed as 25%. Besides, the “Ceca positive for S. Typhimurium” value in data set [11] was 70%. Besides, in data set [11], the “Livers positive for S. Typhimurium” value worked out at 40%. Besides, in [11], the “Spleens positive for S. Typhimurium” value is recorded as 30%.
